According to patent US20080044904A1, “Glyphosate N-acetyltransferase (GAT) confers glyphosate resistance when expressed in plastids” (priority 2005, published 2008):

Tests used:
[1] = test system: Nt-pMHB125 and Nt-pMHB126 leaves (tobacco cells expressing GAT in chloroplasts); experiment: Leaf section test on RMOP culture medium containing glyphosate, plants expressing GAT in chloroplasts; type: cell-based
Excerpt: (§1) Shown are three-week-old cultures initiated from Nt-pMHB125 and Nt-pMHB126 leaves and wild type control. The culture medium and general tissue culture protocols are described in references Svab and Maliga, 1993; and Lutz et al., 2006.
(§2) The ability of leaf sections or stem sections of plants to germinate and/or grow as green plants in a culture containing selective levels of herbicides is a reliable assay of glyphosate resistance (Ye et al. (2003) Plant Physiol., 133:402-410; Ye et al. (2001) Plant J., 25:261-270). Selective levels of glyphosate in the culture medium were in the range of 50 μm to 200 μm, to which plants expressing the CP4 EPSPS gene were resistant. Therefore, sections of the Nt-pMHB125, Nt-pMHB126 and Nt-pMHB127 leaves were inoculated onto RMOP medium containing 100 μm glyphosate (Glyphosate-isopropylammonium). […] Such high level of resistance was sufficient to protect the plants from glyphosate treatment under filed conditions. The new glyphosate resistance (GAT) genes, when expressed in plastids, enable efficient weed control with an environmentally friendly herbicide. Since plastids are not transmitted via pollen in most crops, the GAT gene will not be disseminated via pollen, providing an efficient containment tool (Bock, R. (2001) J. Mol. Biol., 312:425-438; Maliga, P. (2004) Annu. Rev. Plant Biol., 55:289-313).

wild-type leaf sections = experiment: Leaf section test on RMOP culture medium containing glyphosate, wild type control; type: cell-based, tobacco; conditions: RMOP medium containing 100 μm glyphosate (Glyphosate-isopropylammonium); three-week-old cultures
Excerpt: as §1, §2

SMILES: O=C(O)CNCP(=O)(O)O [glyphosate, N-phosphonomethylglycine]
- resistance of tobacco cells expressing GAT in chloroplasts ([1]; 100 μM glyphosate in the RMOP culture medium, three-week-old cultures from Nt-pMHB125 and Nt-pMHB126 leaves): resistant
- growth of Nt-pMHB125 and Nt-pMHB126 leaf sections in the presence of the herbicide ([1]; RMOP medium containing 100 μm glyphosate (Glyphosate-isopropylammonium), three-week-old cultures): formed abundantly proliferating green calli
- growth of wild-type leaf sections in the presence of the herbicide (wild-type leaf sections): failed to grow and bleached
